Measured values from PubChem BioAssay (NCI).
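Cultured in 96-well plates, cells were exposed to test compound for 48 hours across five concentrations. GI50 marks 50% less growth. TGI is the concentration that stops growth completely.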

Assays:
Assay in all cases: growth of human tumour cells (NCI), 48 h
UACC-257 melanoma = tested on: UACC-257 melanoma
A498 renal = tested on: A498 renal
CAKI-1 renal = tested on: CAKI-1 renal
KM12 colon = tested on: KM12 colon
M14 melanoma = tested on: M14 melanoma
SF-268 CNS = tested on: SF-268 CNS
HCT-15 colon = tested on: HCT-15 colon
MCF7 breast = tested on: MCF7 breast
TK-10 renal = tested on: TK-10 renal
COLO 205 colon = tested on: COLO 205 colon
OVCAR-4 ovarian = tested on: OVCAR-4 ovarian
SNB-19 CNS = tested on: SNB-19 CNS
HCC-2998 colon = tested on: HCC-2998 colon
EKVX NSCLC = tested on: EKVX NSCLC
HOP-92 NSCLC = tested on: HOP-92 NSCLC
SK-OV-3 ovarian = tested on: SK-OV-3 ovarian
DU-145 prostate = tested on: DU-145 prostate
IGROV1 ovarian = tested on: IGROV1 ovarian
SNB-75 CNS = tested on: SNB-75 CNS
SF-539 CNS = tested on: SF-539 CNS
RPMI-8226 leukemia = tested on: RPMI-8226 leukemia
PC-3 prostate = tested on: PC-3 prostate
OVCAR-5 ovarian = tested on: OVCAR-5 ovarian
ACHN renal = tested on: ACHN renal
HOP-62 NSCLC = tested on: HOP-62 NSCLC
OVCAR-3 ovarian = tested on: OVCAR-3 ovarian
RXF 393 renal = tested on: RXF 393 renal
HT29 colon = tested on: HT29 colon
SK-MEL-28 melanoma = tested on: SK-MEL-28 melanoma
SK-MEL-5 melanoma = tested on: SK-MEL-5 melanoma
SR leukemia = tested on: SR leukemia
NCI-H522 lung = tested on: NCI-H522 lung
SW-620 colon = tested on: SW-620 colon
SF-295 CNS = tested on: SF-295 CNS
UACC-62 melanoma = tested on: UACC-62 melanoma
NCI-H226 lung = tested on: NCI-H226 lung
UO-31 renal = tested on: UO-31 renal
MALME-3M melanoma = tested on: MALME-3M melanoma
SK-MEL-2 melanoma = tested on: SK-MEL-2 melanoma
HCT-116 colon = tested on: HCT-116 colon
MDA-MB-231 breast = tested on: MDA-MB-231 breast
786-0 renal = tested on: 786-0 renal
SN12C renal = tested on: SN12C renal
HS 578T breast = tested on: HS 578T breast
BT-549 breast = tested on: BT-549 breast
NCI-H460 lung = tested on: NCI-H460 lung
MDA-MB-435 = tested on: MDA-MB-435
NCI-H23 lung = tested on: NCI-H23 lung
LOX IMVI melanoma = tested on: LOX IMVI melanoma
T-47D breast = tested on: T-47D breast

CCCCCCCCCCCCCCCCN(CC)CC
GI50 (UACC-257 melanoma): 1.99 µM
TGI (UACC-257 melanoma): 4.98 µM
GI50 (A498 renal): 17.9 µM
TGI (A498 renal): 37.2 µM
GI50 (CAKI-1 renal): 1.69 µM
TGI (CAKI-1 renal): 3.24 µM
GI50 (KM12 colon): 1.87 µM
TGI (KM12 colon): 3.59 µM
GI50 (M14 melanoma): 1.94 µM
TGI (M14 melanoma): 3.84 µM
GI50 (SF-268 CNS): 2.64 µM
TGI (SF-268 CNS): 8.31 µM
GI50 (HCT-15 colon): 1.88 µM
TGI (HCT-15 colon): 3.66 µM
GI50 (MCF7 breast): 2.33 µM
TGI (MCF7 breast): 6.09 µM
GI50 (TK-10 renal): 1.71 µM
TGI (TK-10 renal): 3.4 µM
GI50 (COLO 205 colon): 2.01 µM
TGI (COLO 205 colon): 3.82 µM
GI50 (OVCAR-4 ovarian): 3.31 µM
TGI (OVCAR-4 ovarian): 11.1 µM
GI50 (SNB-19 CNS): 3.29 µM
TGI (SNB-19 CNS): 13.9 µM
GI50 (HCC-2998 colon): 1.77 µM
TGI (HCC-2998 colon): 3.3 µM
GI50 (EKVX NSCLC): 2.02 µM
TGI (EKVX NSCLC): 4.76 µM
GI50 (HOP-92 NSCLC): 1.74 µM
TGI (HOP-92 NSCLC): 3.94 µM
GI50 (SK-OV-3 ovarian): 3.1 µM
TGI (SK-OV-3 ovarian): 9.8 µM
GI50 (DU-145 prostate): 2.79 µM
TGI (DU-145 prostate): 7.52 µM
GI50 (IGROV1 ovarian): 1.79 µM
TGI (IGROV1 ovarian): 3.36 µM
GI50 (SNB-75 CNS): 2.39 µM
TGI (SNB-75 CNS): 9.03 µM
GI50 (SF-539 CNS): 1.67 µM
TGI (SF-539 CNS): 3.06 µM
GI50 (RPMI-8226 leukemia): 2.23 µM
TGI (RPMI-8226 leukemia): 4.75 µM
GI50 (PC-3 prostate): 2.16 µM
TGI (PC-3 prostate): 5.97 µM
GI50 (OVCAR-5 ovarian): 1.94 µM
TGI (OVCAR-5 ovarian): 4.26 µM
GI50 (ACHN renal): 2.1 µM
TGI (ACHN renal): 4.45 µM
GI50 (HOP-62 NSCLC): 2.87 µM
TGI (HOP-62 NSCLC): 8.77 µM
GI50 (OVCAR-3 ovarian): 2.87 µM
TGI (OVCAR-3 ovarian): 7.99 µM
GI50 (RXF 393 renal): 1.88 µM
TGI (RXF 393 renal): 4.2 µM
GI50 (HT29 colon): 2.13 µM
TGI (HT29 colon): 4.59 µM
GI50 (SK-MEL-28 melanoma): 1.91 µM
TGI (SK-MEL-28 melanoma): 3.84 µM
GI50 (SK-MEL-5 melanoma): 1.94 µM
TGI (SK-MEL-5 melanoma): 3.79 µM
GI50 (SR leukemia): 1.99 µM
TGI (SR leukemia): 4.51 µM
GI50 (NCI-H522 lung): 1.76 µM
TGI (NCI-H522 lung): 3.48 µM
GI50 (SW-620 colon): 2.03 µM
TGI (SW-620 colon): 3.9 µM
GI50 (SF-295 CNS): 1.73 µM
TGI (SF-295 CNS): 3.55 µM
GI50 (UACC-62 melanoma): 1.75 µM
TGI (UACC-62 melanoma): 3.28 µM
GI50 (NCI-H226 lung): 3.74 µM
TGI (NCI-H226 lung): 16.9 µM
GI50 (UO-31 renal): 1.6 µM
TGI (UO-31 renal): 3.47 µM
GI50 (MALME-3M melanoma): 1.92 µM
TGI (MALME-3M melanoma): 4.35 µM
GI50 (SK-MEL-2 melanoma): 3.01 µM
TGI (SK-MEL-2 melanoma): 8.9 µM
GI50 (HCT-116 colon): 1.77 µM
TGI (HCT-116 colon): 3.22 µM
GI50 (MDA-MB-231 breast): 1.75 µM
TGI (MDA-MB-231 breast): 3.21 µM
GI50 (786-0 renal): 1.69 µM
TGI (786-0 renal): 3.1 µM
GI50 (SN12C renal): 2.21 µM
TGI (SN12C renal): 5.53 µM
GI50 (HS 578T breast): 3.47 µM
TGI (HS 578T breast): 15.8 µM
GI50 (BT-549 breast): 1.87 µM
TGI (BT-549 breast): 3.89 µM
GI50 (NCI-H460 lung): 1.92 µM
TGI (NCI-H460 lung): 3.56 µM
GI50 (MDA-MB-435): 1.95 µM
TGI (MDA-MB-435): 3.86 µM
GI50 (NCI-H23 lung): 2.83 µM
TGI (NCI-H23 lung): 9 µM
GI50 (LOX IMVI melanoma): 1.73 µM
TGI (LOX IMVI melanoma): 3.38 µM
GI50 (T-47D breast): 3.39 µM
TGI (T-47D breast): 17 µM
